From patent publication US20190030166A1, “PERCUTANEOUSLY ABSORBABLE COMPOSITION CONTROLLED IN RELEASE OF WATER-SOLUBLE EFFECTIVE INGREDIENT” (NISSAN CHEMICAL CORPORATION, priority 2016, published 2019) come the findings set out here.

Peptide text beside a SMILES is read from it.

The nature of one data set: Oil solubilization of Peptide A or B using citral. It counts as physicochemical. As to conditions: 2 mg peptide, 0.1 mL citral, 0.1 mL ethanol, 80° C. (Peptide A 3 hours, Peptide B 4 hours); 50 μL ethanol solution + 150 μL IPM. Here is the method:
The oil solubilization experiment of Peptide A is as follows.
Preparation conditions under heating at 80° C. are as follows.
Preparation conditions under stirring at room temperature are as follows. To 1 mL of a screw-top sample tube were added 2 mg of Peptide B, 0.1 mL of citral and 0.1 mL of ethanol, and the mixture was stirred at room temperature for 22 hours to obtain an ethanol solution.
Turning to `CSCC[C@H](NC(=O)[C@H](CC(C)C)NC(=O)[C@@H](NC(=O)[C@H](Cc1ccccc1)NC(=O)CNC(=O)[C@@H](NC(=O)[C@H](CC(C)C)NC(=O)[C@H](CCCCN)NC(=O)[C@H](C)NC(=O)[C@H](Cc1ccccc1)NC(=O)[C@@H](N)CCC(N)=O)[C@@H](C)O)[C@@H](C)O)C(=O)NCC(=O)O` [Peptide A] (H-QFAKLTGFTLMG-OH; N-terminus and C-terminus assumed), the “Solution state in IPM” value is “pale yellow peptide IPM solution”. In the case of `CSCC[C@H](NC(=O)[C@@H](N)CO)C(=O)N[C@@H](CCCCN)C(=O)N[C@H](C(=O)N[C@H](C(=O)N[C@H](C(=O)N[C@@H](C)C(=O)N[C@@H](Cc1ccccc1)C(=O)N[C@@H](CC(N)=O)C(=O)N[C@@H](CCC(N)=O)C(=O)N[C@@H](Cc1ccccc1)C(=O)NCC(=O)N1CCC[C@H]1C(=O)O)C(C)C)[C@@H](C)O)C(C)C` [Peptide B] (H-SMKVTVAFNQFGP-OH; N-terminus and C-terminus assumed), the “Solution state in IPM” value is recorded as “pale yellow peptide IPM solution”.

The data set is the same for the next values; noted with them: 2 mg peptide, 0.1 mL citral, 0.1 mL ethanol, stirred at room temperature 22 hours.
In the case of `CSCC[C@H](NC(=O)[C@@H](N)CO)C(=O)N[C@@H](CCCCN)C(=O)N[C@H](C(=O)N[C@H](C(=O)N[C@H](C(=O)N[C@@H](C)C(=O)N[C@@H](Cc1ccccc1)C(=O)N[C@@H](CC(N)=O)C(=O)N[C@@H](CCC(N)=O)C(=O)N[C@@H](Cc1ccccc1)C(=O)NCC(=O)N1CCC[C@H]1C(=O)O)C(C)C)[C@@H](C)O)C(C)C` [Peptide B] (H-SMKVTVAFNQFGP-OH; N-terminus and C-terminus assumed), the “State of ethanol solution” value is given as “yellow gel-like substance”.

Test in another data set: not given
Details: not given
Here is the method:
Solubilization of the complex with citronellal or citral in ethanol was examined while keeping the amino acid as crystal. The amino acids are different in the crystalline state in the commercial products depending on the kind thereof, so that there were fear that the results might cause fluctuation. Thus, an operation for enlarging the surface in contact with the liquid was added by making the difference due to crystals small as well as making the surface area as much as possible. Specifically, the crystals of the amino acids were ground in a mortar and then sieved through a 100 μm sieve to provide powders, which were used in the present test.
The amount and heating time of citronellal or citral necessary for solubilizing the obtained complex in ethanol, and the dispersed state of the obtained complex in ethanol was confirmed.
`NC(=O)CC[C@H](N)C(=O)O` [Glutamine, L(+)-glutamine]: the “Amount of citral necessary for solubilizing in ethanol” value (“Amount of citral necessary” below) is given as 700 mg and the “Heating time necessary for solubilizing in ethanol” value (“Heating time necessary” for short) is 24 h.

On to `N[C@@H](Cc1c[nH]cn1)C(=O)O` [Histidine, L-histidine], for which the “Amount of citronellal necessary for solubilizing in ethanol” value (from here on “Amount of citronellal necessary”) was found to be 700 mg and the “Heating time necessary” value worked out at 17.5 h. On to `CC[C@H](C)[C@H](N)C(=O)O` [Isoleucine, L(+)-isoleucine], for which the “Amount of citral necessary” value was found to be 700 mg and the “Heating time necessary” value was 0.25 h.

`C[C@H](N)C(=O)O` [L-Alanine, L-alanine]: the “Amount of citral necessary” value was 700 mg and the “Heating time necessary” value is on record as 5 h. Turning to `N[C@@H](CS)C(=O)O` [L-cysteine], the “Amount of citronellal necessary” value is on record as 700 mg and the “Heating time necessary” value stood at 0.33 h.

For `NCCCC[C@H](N)C(=O)O` [Lysine, L-(+) lysine], the “Amount of citronellal necessary” value is reported as 700 mg and the “Heating time necessary” value is reported as 0.5 h. For the compound `N[C@@H](Cc1c[nH]c2ccccc12)C(=O)O` [Tryptophan, L-tryptophan], the “Amount of citronellal necessary” value turned out to be 700 mg and the “Heating time necessary” value amounted to 24 h. Turning to `CC(C)[C@H](N)C(=O)O` [Valine, L-valine], the “Amount of citral necessary” value was found to be 700 mg and the “Heating time necessary” value came out at 3 h.
